Laboratory results: patent US20040063710A1, “Ophthalmological preparations” (priority 2000, published 2004)

Columns and labels:
retinal ganglion cells = assay: Inhibitory effect against retinal ganglion cell death caused by glutamate; format: cell-based, Wister rat; conditions: 10^-7 M, 10^-6 M, 10^-5 M MCI-154; 250 μM glutamate, 48 hours culture; versus control group
Procedure: In accordance with the method of Otori et al. (Investigative Ophthalmology & Visual Science, Vol. 39, No. 6, 1998), retinal ganglion cells were isolated from a 6 day-old Wister rat, and approximately 300 cells were plated on each cover glass having a diameter of 12 mm with poly-L-lysine and laminin coatings, that was inserted in each well of a 24-well culture plate, and then were cultured for 24 hours. The cells were divided into an untreated group, a control group, and medicament-treated group, each consisting of 2 wells. To the untreated and control groups, a basic culture medium was added, and to the medicament-treated groups, MCI-154 was added at various concentrations. After 4 hours of culture, 250 μM of glutamate was added to all of the groups except for the untreated group, followed by further culture for 48 hours. After the culture for 48 hours, cells were stained with 1 μM calcein acetoxymethyl ester, and the number of cells with neurites growing more than twice as long as the cell body diameter was counted as viable cells under a fluorescence microscope. Independent three experiments were performed in duplicate.
Medicament-treated group: 10^−7 M, 10^−6 M, and 10^−5 M MCI-154
Basic culture medium: Neurobasal (Gibco, Grand Island, N.Y.) including 1 mM glutamine, 10 μg/ml gentamycin, and 40 ng/ml […], CNTF, and b-FGF. […]

[1] = tested on: retinal degeneration caused by transient retinal ischemia; assay: Inhibitory effect against retinal degeneration induced by transient retinal ischemia; format: in vivo, Wister male rats; conditions: 0.1 mg/kg into caudal vein just before and immediately after ocular hypertension treatment (130 mmHg, 50 minutes); 7 days after; versus control group
Procedure: Wister male rats (body weight of about 200 g) was used. Each animal was subjected to sufficient warming treatment by using a thermal plate under anesthesia, and the head was fixed by using a stereotaxic apparatus. In order to induce transient retinal ischemia, IOP was maintained at 130 mmHg for 50 minutes by injecting intraocular irrigating solution into the anterior chamber via the cornea using an infusion tube and 30 G injection needle which were connected to a bottle held at 174 cm above the eyes (ocular hypertension treatment) according to the method of Akaike (Folia Pharmacologica Japonica, 111, pp.97-104(1998)). The ocular hypertension treatment was performed only on the right eye, and the left eye was left untreated. Just before and immediately after the ocular hypertension treatment, a physiological saline or a dose of 0.1 mg/kg of MCI0154 was injected to the caudal vein. Seven days after the ocular hypertension treatment, the animal was sacrificed under anesthesia, and eyeballs were isolated and a light microscopic specimens of horizontal sections of retina were prepared. Under a microscope, thickness of the retina (from inner plexiform layer to outer plexiform layer) was measured using a micrometer. […] 7 days after the ocular hypertension treatment. Data represent means±SEM (standard errors), and the number of rats for each group was 10. […]

[2] = tested on: left atrium of guinea pig; assay: Isolated left atrium of guinea pig; conditions: Dose 3 × 10^-5 g/ml
Procedure: A left atrium was isolated from a male guinea pig with 200-300 g of body weight soon after striking on the back of its head. The mitral orifice was fixed to the bottom of an organ bath filled with 30 ml of Krebs-Henseleit solution maintained at 35° C. A gas mixture comprising 95% O2 and 5% CO2 was passed through the Krebs-Henseleit solution in the organ bath. Isometric tension was measured by connecting a left auricle of heart and a transducer by a yarn. A resting tension of 0.5 g was given to the atrium, which was then electrically driven with square pulses with duration of 1 msec and voltage of 1.5 times as much as threshold in the rate 2 Hz via dipolar platinum electrodes. After stabilizing the atrium for 30 minutes from its preparation, the compound dissolved in a solvent was added to the organ bath to measure its effect.

For `O=C1CCC(c2ccc(Nc3ccncc3)cc2)=NN1` [MCI-154, 6-[4-(4-pyridylamino)phenyl]-4,5-dihydro-3 (2H)pyridazinone], the “inhibition of retinal ganglion cell death induced by glutamate (viable cells relative to untreated group)” value (retinal ganglion cells) was “significantly inhibits”, the “inhibition of retinal degeneration caused by transient retinal ischemia (retinal thickness ratio)” value [1] was “significantly inhibits” and the “Contraction of left atrium of guinea pig, Increase (%)” value [2] was 188%.
